In US5463077A, “Perhydroisoindole derivatives and preparation” (Rhone-Poulenc Rorer S.A., priority 1992, dated 1995):

Columns and labels:
Format in all cases: in vivo
[1] = test system: increase in capillary permeability caused by septide (agonist of substance P); assay: Inhibition of the increase in capillary permeability caused by septide (Saria et al., adapted for the guinea-pig); conditions: Cavia porcellus
Description: Study of certain isoindole derivatives of the general formula (IV) by the technique of A. Saria et al., Arch.

[2] = test system: hypotension induced by substance P; assay: Antagonism of hypotension induced by substance P (Maggi et al.); conditions: Cavia porcellus, iv; guinea-pig; hypotension induced by i.v. injection of 250 ng/kg of substance P; read-out: ED50, dose which reduces by 50% the hypotension
Experimental: Injection of substance P into the animal causes hypotension. The products studied by the technique of C. A. Maggi et al., J. Auton. Pharmac., 7, 11-32 (1987) show an antagonistic effect with respect to this hypotension in the guinea-pig. The ED50, the dose which reduces by 50% the hypotension induced by an i.v. injection of 250 ng/kg of substance P, is determined.

[3] = test system: bronchospasm induced by [Pro^9 ] substance P; assay: Inhibition of bronchospasm induced by [Pro9] substance P (Konzett and Rossler); conditions: Cavia porcellus, iv; guinea-pig; bronchospasm induced by 3 μg/kg i.v. of [Pro9] substance P; read-out: ED50, dose which reduces by 50% the bronchospasm
Description: Injection of substance P causes a bronchospasm in the animal. The bronchoconstriction induced in vivo in the guinea-pig by injection of substance P or of a selective agonist of substance P: [Pro^9 ] substance P is studied by the technique of H. Konzett and R. Rosseler, Archiv. Exp. Path. Pharmak., 195, 71-74 (1940). This bronchoconstriction is inhibited by injection of a product of the general formula (IV), which is evidence of an antiasthmatic activity. The ED50, the dose which reduces by 50 % the bronospasm induced by 3 μg/kg i.v. of [Pro^9 ] substance P, is determined. In this technique, the ED50 of the product of Use Example 1 is 0.7 mg/kg i.v.

COc1ccccc1[C@H](C)C(=O)N1C[C@@H]2[C@H](C1)C(c1ccccc1)(c1ccccc1)CC[C@@]2(O)c1ccccc1OC [Use Example 1, (3aS,4S,7aS)-7,7-diphenyl-4-(2-methoxyphenyl)-2-[2-(2-methoxyphenyl)-(S)-propionyl]-perhydroisoindol-4-ol]
ED50 ([1]; iv): 0.04 mg/kg | ED50 ([1]; po): 3.5 mg/kg | ED50 [2]: 0.15 mg/kg | ED50 [3]: 0.7 mg/kg
